Assay results taken from patent publication US11912693B2, “Compounds for modulating S1P1 activity and methods of using the same” (TREVENA, INC., priority 2017, dated 2024).

What was measured:
[1] = target: T1, human sphingosine-1-phosphate receptor 1 (S1P1) (Homo sapiens (Human), UniProt P21453); assay: Inhibition of cAMP production (HTRF cAMP HiRange), S1P1 CHO-K1 cells; format: cell-based; details: for Emax: CHO-K1, efficacy (SPAN) normalized to fingolimod, read-out: hS1P1 cAMP SPAN
Procedure: (§1) Stable clonal Chinese hamster ovary K1 (CHO-K1) cells co-expressing EA-β-arrestin2 and the human sphingosine-1-phosphate receptor 1 (NM_001400, S1P1) with a C-terminal Prolink™ tag were purchased from DiscoverX corporation (Cat #: 93-0207C2).
(§2) Cell lines were cultured in AssayComplete™ Media 6 (DiscoverX Corporation, Cat #: 920018GF2) at 37° C. and 5% CO2 in a humidified CO2 and temperature-controlled incubator. To begin assay plating, cells were washed with dulbecco's phosphate buffered saline (CellGro, Cat #: 21-031-CV) and lifted from the culturing flask by incubation (37° C., 5 min) with CellStripper (Cellgro, Cat #: 25-056-CI). […] Plated cells were incubated overnight at 37° C. and 5% CO2 in a humidified CO2 and temperature-controlled incubator. Detecting Inhibition of cAMP Production
Agonist-promoted G-protein responses were determined by measuring changes in intracellular cAMP using the HTRF® cAMP HiRange kit (CisBio, Cat #: 62AM6PEJ) based on time-resolved fluorescence resonance energy transfer (TR-FRET) technology. […] Following a 30-minute incubation at 37° C. and 5% CO2 in a humidified CO2 and temperature-controlled incubator, the components of the cAMP HiRange kit were added as per the manufacturer's instructions. After an hour incubation at room temperature, plates were analyzed by a BMG PheraStar microplate reader.
(§3) The tables below include the efficacy of the compound as compared to a positive control, referred to as “SPAN”. These values are normalized to fingolimod, a known agonist of the sphingosine-1-phosphate 1 receptor. The tables also include potency values (pEC50) for modulating discrete receptor-mediated activities (inhibition of cAMP production and […] recruitment).
Target sequence in this assay (P21453 whole entry, looked up): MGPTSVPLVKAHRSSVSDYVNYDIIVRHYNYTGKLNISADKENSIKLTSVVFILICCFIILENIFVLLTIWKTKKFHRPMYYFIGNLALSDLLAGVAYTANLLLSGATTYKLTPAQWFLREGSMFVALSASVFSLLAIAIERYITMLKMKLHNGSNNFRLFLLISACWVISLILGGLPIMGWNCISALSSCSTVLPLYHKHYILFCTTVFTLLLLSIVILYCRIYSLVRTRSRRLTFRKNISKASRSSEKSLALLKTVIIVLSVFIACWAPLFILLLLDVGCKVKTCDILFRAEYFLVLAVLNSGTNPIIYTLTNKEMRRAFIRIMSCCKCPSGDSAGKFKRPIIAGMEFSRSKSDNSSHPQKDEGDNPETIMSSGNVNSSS

[2] = target: T1, human sphingosine-1-phosphate receptor 1 (S1P1); assay: β-Arrestin2 recruitment assay (PathHunter), S1P1 CHO-K1 cells; format: cell-based; details: for Emax: CHO-K1, efficacy (SPAN) normalized to fingolimod, read-out: hS1P1 B-arrestin2 SPAN
Procedure: as §1, §2
Target sequence in this assay (P21453 whole entry, looked up): as above
Target sequence in this assay (P32121 whole entry partner, looked up): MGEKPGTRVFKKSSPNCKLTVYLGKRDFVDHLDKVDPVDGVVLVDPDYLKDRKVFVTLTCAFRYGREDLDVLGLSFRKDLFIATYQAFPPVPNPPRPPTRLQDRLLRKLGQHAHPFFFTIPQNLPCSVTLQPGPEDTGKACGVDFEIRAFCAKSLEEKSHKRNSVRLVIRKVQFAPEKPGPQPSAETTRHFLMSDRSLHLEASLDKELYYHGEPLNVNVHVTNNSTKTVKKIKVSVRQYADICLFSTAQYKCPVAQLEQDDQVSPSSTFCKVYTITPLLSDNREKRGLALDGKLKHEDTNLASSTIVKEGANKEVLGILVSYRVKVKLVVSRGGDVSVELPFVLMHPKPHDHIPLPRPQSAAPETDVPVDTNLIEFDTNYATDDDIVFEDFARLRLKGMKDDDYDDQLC
Agonist-promoted β-arrestin2 recruitment to the sphingosine-1-phosphate 1 receptor was determined using the β-arrestin PathHunter®) Detection kit (DiscoverX Corporation, Cat #: 93-0001). […] In cells that stably express these fusion proteins, stimulation with a cognate agonist results in the interaction of […] and the Prolink™-tagged GPCR. This allows the complementation of the two β-galactosidase fragments and results in the formation of a functional enzyme with β-galactosidase activity. […] Following a 60 minute incubation at 37° C. and 5% CO2 in a humidified CO2 and temperature-controlled incubator, the components of the β-arrestin PathHunter® Detection kit were added as per the manufacturer's instructions. After an hour incubation at room temperature, plates were analyzed by a BMG PheraStar microplate reader.
as §3

[3] = inhibition of cAMP production, S1P1 CHO-K1 cells
[4] = β-arrestin2 recruitment, S1P1 CHO-K1 cells

| Emax [1] | hS1P1 cAMP pEC50 [1, 3] | Emax [2] | hS1P1 B-arrestin2 pEC50 [2, 4] | EC50 ([1]; inhibition of cAMP production, S1P1 CHO-K1 cells, read-out: hS1P1 cAMP pEC50 (converted)) | EC50 ([2]; β-arrestin2 recruitment, S1P1 CHO-K1 cells, read-out: hS1P1 B-arrestin2 pEC50 (converted)) | SMILES |
| --- | --- | --- | --- | --- | --- | --- |
| > 75% | >6.5 | > 75% | <5 |  |  | CC(C)n1nnc2cc(-c3nc4c(o3)COc3ccccc3-4)ccc21 [Compound 462, 5-{4H-chromeno[4,3-d][1,3]oxazol-2-yl}-1-(propan-2-yl)-1H-1,2,3-benzotriazole] |
|  | >6.5 |  | >5 |  |  | COc1ccccc1-c1cnc(-c2ccc3c(c2)nnn3C(C)C)nc1 [Compound 565, 1-isopropyl-5-(5-(2-methoxyphenyl)pyrimidin-2-yl)-1H-benzo[d][1,2,3]triazole] |
|  | >6.5 |  | >5 |  |  | CCC1(CC)CC(=O)c2cc(-c3nc(-c4ccsc4)no3)ccc2O1 [Compound 468, 2,2-diethyl-6-(3-(thiophen-3-yl)-1,2,4-oxadiazol-5-yl)chroman-4-one] |
|  | <6.5 |  | <5 |  |  | CC(C)n1nnc2cc(-c3nc(-c4ccc(-c5ccccc5)cn4)no3)ccc21 [Compound 9, 5-[3-(5-phenylpyridin-2-yl)-1,2,4-oxadiazol-5-yl]-1-(propan-2-yl)-1H-1,2,3-benzotriazole] |
|  | >6.5 |  | >5 |  |  | CCC1(CC)CC(=O)c2cc(-c3nc(-c4ccc5c(c4)CC(=O)N5)no3)ccc2O1 [Compound 416, 5-(5-(2,2-diethyl-4-oxochroman-6-yl)-1,2,4-oxadiazol-3-yl)indolin-2-one] |
| > 75% | >6.5 | > 75% | <5 |  |  | COc1ccc2nc(-c3ccc4c(c3)nnn4C(C)C)oc2c1 [Compound 426, 2-(1-isopropyl-1H-benzo[d][1,2,3]triazol-5-yl)-6-methoxybenzo[d]oxazole] |
| < 75% | <6.5 | < 75% | <5 |  |  | Fc1ccc(-c2noc(-c3ccc4c(c3)nnn4C3CCCC3)n2)cc1 [Compound 232, 1-cyclopentyl-5-[3-(4-fluorophenyl)-1,2,4-oxadiazol-5-yl]-1H-1,2,3-benzotriazole] |
|  | >6.5 |  | >5 |  |  | CC(C)n1ccc2cc(-c3noc(-c4ccccc4C(F)(F)F)n3)ccc21 [Compound 390, 3-(1-isopropyl-1H-indol-5-yl)-5-(2-(trifluoromethyl)phenyl)-1,2,4-oxadiazole] |
| > 75% | >6.5 | > 75% | >5 |  |  | CC(C)Nc1ccc(-c2nc(-c3ccc4sc(N)nc4c3)no2)cc1C#N [Compound 441, 5-(3-(2-aminobenzo[d]thiazol-5-yl)-1,2,4-oxadiazol-5-yl)-2-(isopropylamino)benzonitrile] |
| > 75% | <6.5 | > 75% | <5 |  |  | Cc1ccncc1-c1noc(-c2ccc3c(c2)nnn3C2CCOCC2)n1 [Compound 439, 5-[3-(4-methylpyridin-3-yl)-1,2,4-oxadiazol-5-yl]-1-(oxan-4-yl)-1H-1,2,3-benzotriazole] |
|  | <6.5 |  | <5 |  |  | CCC1(CC)CC(=O)c2cc(-c3nc(-c4cnccn4)no3)ccc2O1 [Compound 617, 2,2-diethyl-6-(3-(pyrazin-2-yl)-1,2,4-oxadiazol-5-yl)chroman-4-one] |
| > 75% | <6.5 | < 75% | <5 |  |  | CC(C)n1ccc2cc(-c3nc(-c4ccccc4C(F)(F)F)cs3)ccc21 [Compound 404, 2-(1-isopropylindol-5-yl)-4-[2-(trifluoromethyl)phenyl]thiazole] |
| > 75% |  | > 75% |  | > 0.316 µM | > 10 µM | Cc1cc(-c2noc(-c3ccc4c(c3)nnn4CC(C)(C)O)n2)c(C)o1 [Compound 493, 1-{5-[3-(2,5-dimethylfuran-3-yl)-1,2,4-oxadiazol-5-yl]-1H-1,2,3-benzotriazol-1-yl}-2-methylpropan-2-ol] |
|  | <6.5 |  | <5 |  |  | COc1cccc(-c2nc(-c3ccc4c(ccn4C(C)C)c3)ns2)c1 [Compound 366, 5-[5-(3-methoxyphenyl)-1,2,4-thiadiazol-3-yl]-1-(propan-2-yl)-1H-indole] |
|  | >6.5 |  | >5 |  |  | Cc1cnccc1-c1noc(-c2ccc3c(c2)nnn3CC(C)(C)O)n1 [Compound 597, 2-methyl-1-{5-[3-(3-methylpyridin-4-yl)-1,2,4-oxadiazol-5-yl]-1H-1,2,3-benzotriazol-1-yl}propan-2-ol] |
| > 75% | >6.5 | > 75% | >5 |  |  | CC(C)n1nnc2cc(-c3nc(-c4ccncc4)no3)ccc21 [Compound 244, 1-(propan-2-yl)-5-[3-(pyridin-4-yl)-1,2,4-oxadiazol-5-yl]-1H-1,2,3-benzotriazole] |
| > 75% | >6.5 | > 75% | >5 |  |  | Cc1cccc2oc(-c3ccc4c(c3)nnn4C(C)C)nc12 [Compound 418, 2-(1-isopropyl-1H-benzo[d][1,2,3]triazol-5-yl)-4-methylbenzo[d]oxazole] |
|  | >6.5 |  | >5 |  |  | CCC1(CC)CC(=O)c2cc(-c3noc(-c4cccnc4)n3)ccc2O1 [Compound 559, 2,2-diethyl-6-(5-(pyridin-3-yl)-1,2,4-oxadiazol-3-yl)chroman-4-one] |
|  | >6.5 |  | >5 |  |  | Cc1nc2cc(-c3nc(-c4ccc5c(c4)nnn5C(C)C)no3)ccc2[nH]1 [Compound 571, 5-[5-(2-methyl-1H-1,3-benzodiazol-5-yl)-1,2,4-oxadiazol-3-yl]-1-(propan-2-yl)-1H-1,2,3-benzotriazole] |
| < 75% | <6.5 | < 75% | <5 |  |  | CC1(C)CC(=O)c2cc(-c3nc(-c4ccncc4)no3)ccc2O1 [Compound 291, 2,2-dimethyl-6-[3-(pyridin-4-yl)-1,2,4-oxadiazol-5-yl]-3,4-dihydro-2H-1-benzopyran-4-one] |
| < 75% | <6.5 | < 75% | <5 |  |  | Cc1oc(-c2ccc3c(c2)nnn3C(C)C)nc1-c1ccccc1 [Compound 247, 5-(5-methyl-4-phenyl-1,3-oxazol-2-yl)-1-(propan-2-yl)-1H-1,2,3-benzotriazole] |
| > 75% | >6.5 | > 75% | <5 |  |  | CC(C)n1ncc2cc(-c3nc(-c4ccccc4O)no3)ccc21 [Compound 333, 2-(5-(1-isopropyl-1H-indazol-5-yl)-1,2,4-oxadiazol-3-yl)phenol] |
|  | <6.5 |  | <5 |  |  | COc1ccccc1-c1nnc(-c2ccc3c(c2)c(=O)on3C)o1 [Compound 340, 5-[5-(2-methoxyphenyl)-1,3,4-oxadiazol-2-yl]-1-methyl-1,3-dihydro-2,1-benzoxazol-3-one] |
|  | <6.5 |  | <5 |  |  | Cc1nccnc1-c1nc(-c2ccc3c(c2)nnn3C(C)C)no1 [Compound 44, 3-(1-isopropyl-1H-benzo[d][1,2,3]triazol-5-yl)-5-(3-methylpyrazin-2-yl)-1,2,4-oxadiazole] |
|  | >6.5 |  | >5 |  |  | CC(C)n1nnc2cc(-c3nc(-c4ccccc4Br)no3)cnc21 [Compound 413, 3-(2-bromophenyl)-5-[3-(propan-2-yl)-3H-[1,2,3]triazolo[4,5-b]pyridin-6-yl]-1,2,4-oxadiazole] |

| SMILES | Emax [1] | hS1P1 cAMP pEC50 [1, 3] | Emax [2] | hS1P1 B-arrestin2 pEC50 [2, 4] | EC50 ([1]; inhibition of cAMP production, S1P1 CHO-K1 cells, read-out: hS1P1 cAMP pEC50 (converted)) | EC50 ([2]; β-arrestin2 recruitment, S1P1 CHO-K1 cells, read-out: hS1P1 B-arrestin2 pEC50 (converted)) |
| --- | --- | --- | --- | --- | --- | --- |
| COc1ccc(-c2noc(-c3ccc4c(c3)nnn4CC(C)(C)O)n2)c(C)c1 [Compound 647, 1-{5-[3-(4-methoxy-2-methylphenyl)-1,2,4-oxadiazol-5-yl]-1H-1,2,3-benzotriazol-1-yl}-2-methylpropan-2-ol] | > 75% | >6.5 | > 75% | >5 |  |  |
